# Results: patent US9695155B2, “Herbicidal substituted pyrimidinyloxy benzene compounds” (E. I. DU PONT DE NEMOURS AND COMPANY, priority 2013, dated 2017)
# Tests used:
# [1] = test system: deadnettle; assay: Test D preemergence; type: in vivo, Lamium amplexicaule; settings: Lamium amplexicaule, pre-emergence, scale 0-100, read-out: Plant response rating, Deadnettle
# Method in brief: (§1)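 Greenhouse herbicide screen. Sowing into silt loam for preemergence application; foliar application to 2–18 cm seedlings in potting mix for postemergence. 0–100 visual control rating after 7–21 d.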
# [2] = test system: lambsquarters; assay: Test D postemergence; type: in vivo, Chenopodium album; settings: Chenopodium album, post-emergence, scale 0 to 100 (0 no effect, 100 complete control), read-out: Plant response rating, Lambsquarters
# Method in brief: as §1
# [3] = test system: blackgrass; assay: Test D preemergence; type: in vivo, Alopecurus myosuroides; settings: Alopecurus myosuroides, pre-emergence, scale 0-100, read-out: Plant response rating, Blackgrass
# Method in brief: as §1
# [4] = test system: speedwell; assay: Test D postemergence; type: in vivo, Veronica persica; settings: Veronica persica, post-emergence, scale 0 to 100 (0 no effect, 100 complete control), read-out: Plant response rating, Speedwell
# Method in brief: as §1
# [5] = test system: palmer pigweed; assay: Test E postemergence; type: in vivo, Amaranthus palmeri; settings: post-emergence, read-out: Plant response rating, Pigweed, Palmer
# From the text: (§2) Seeds of plant species selected from corn (Zea mays), soybean (Glycine max), velvetleaf (Abutilon theophrasti), lambsquarters (Chenopodium album), wild poinsettia (Euphorbia heterophylla), palmer pigweed (Amaranthus palmeri), waterhemp (common waterhemp, Amaranthus rudis), surinam grass (Brachiaria decumbens), large (Lg) crabgrass (Digitaria sanguinalis), Brazilian crabgrass (Digitaria horizontalis), fall panicum (Panicum dichotomiflorum), giant foxtail (Setaria faberii), green foxtail (Setaria viridis), goosegrass (Eleusine indica), johnsongrass (Sorghum halepense), ragweed (common ragweed, Ambrosia elatior), barnyardgrass (Echinochloa crus-galli), sandbur (southern sandbur, Cenchrus echinatus), arrowleaf sida (Sida rhombifolia), Italian ryegrass (Lolium multiflorum), dayflower (Virginia (VA) dayflower, Commelina virginica), field bindweed (Convolvulus arvensis), morningglory (Ipomoea coccinea), nightshade (eastern black nightshade, Solanum ptycanthum), kochia (Kochia scoparia), yellow nutsedge (Cyperus esculentus), cocklebur (common cocklebur, Xanthium strumarium), smartweed (ladysthumb smartweed, and hairy beggarticks (Bidens pilosa), were planted into a silt loam soil and treated preemergence with test chemicals formulated in a non-phytotoxic solvent mixture which included a surfactant.
# (§3) At the same time, plants from these crop and weed species and also horseweed (Canada horseweed, Conyza canadensis), waterhemp_RES1, (ALS & Triazine resistant common waterhemp, Amaranthus rudis), and waterhemp_RES2, (ALS & HPPD resistant common waterhemp, Amaranthus rudis) were planted in pots containing Redi-Earth® planting medium (Scotts Company, 14111 Scottslawn Road, Marysville, Ohio 43041) comprising spaghnum peat moss, vermiculite, wetting agent and starter nutrients were treated with postemergence applications of test chemicals formulated in the same manner. Plants ranged in height from 2 to 18 cm for postemergence treatments (1- to 4-leaf stage). Treated plants and controls were maintained in a greenhouse for 14 to 21 days, after which time all species were compared to controls and visually evaluated. Plant response ratings, summarized in Table E, are based on a scale of 0 to 100 where 0 is no effect and 100 is complete control. A dash (-) response means no test result.
# [6] = test system: galium; assay: Test D postemergence; type: in vivo, Galium aparine; settings: Galium, post-emergence, scale 0 to 100 (0 no effect, 100 complete control), read-out: Plant response rating, Galium
# Method in brief: as §1
# [7] = test system: arrowleaf sida; assay: Test E postemergence; type: in vivo, Sida rhombifolia; settings: Sida rhombifolia, post-emergence, read-out: Plant response rating, Arrowleaf Sida
# From the text: as §2, §3
# [8] = test system: lambsquarters; assay: Test D preemergence; type: in vivo, Chenopodium album; settings: Chenopodium album, pre-emergence, scale 0-100, read-out: Plant response rating, Lambsquarters
# Method in brief: as §1
# [9] = test system: kochia; assay: Test D preemergence; type: in vivo, Kochia scoparia; settings: Bassia scoparia, pre-emergence, scale 0-100, read-out: Plant response rating, Kochia
# Method in brief: as §1
# [10] = test system: deadnettle; assay: Test D postemergence; type: in vivo, Lamium amplexicaule; settings: Lamium amplexicaule, post-emergence, scale 0 to 100 (0 no effect, 100 complete control), read-out: Plant response rating, Deadnettle
# Method in brief: as §1
# [11] = test system: wild mustard; assay: Test D postemergence; type: in vivo, Sinapis arvensis; settings: Brassica, post-emergence, scale 0 to 100 (0 no effect, 100 complete control), read-out: Plant response rating, Mustard, Wild
# Method in brief: as §1
# [12] = test system: wild buckwheat; assay: Test D preemergence; type: in vivo, Polygonum convolvulus; settings: Fallopia convolvulus, pre-emergence, scale 0-100, read-out: Plant response rating, Buckwheat, Wild
# Method in brief: as §1
# [13] = test system: chickweed; assay: Test D postemergence; type: in vivo, Stellaria media; settings: Stellaria media, post-emergence, scale 0 to 100 (0 no effect, 100 complete control), read-out: Plant response rating, Chickweed
# Method in brief: as §1
# [14] = test system: corn; assay: Test E postemergence; type: in vivo, Zea mays; settings: Zea mays, post-emergence
# Method in brief: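 Compound in a non-phytotoxic solvent mixture with surfactant was applied preemergence to seeds in silt loam soil, or postemergence to plants 2 to 18 cm tall grown in peat-based potting medium. Plants were kept in a greenhouse for 14 to 21 days, then rated visually against untreated controls on a 0 (no effect) to 100 (complete control) scale.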
# [15] = Postemergence, 31 g ai/ha, scale 0 to 100
# [16] = Postemergence, 62 g ai/ha, scale 0 to 100
# [17] = Postemergence, 125 g ai/ha, scale 0 to 100
# [18] = Postemergence, 250 g ai/ha, scale 0 to 100
# [19] = postemergence, 16 g ai/ha, scale 0 to 100, 0 no effect, 100 complete control
smiles,measurement,setting,value
"N#Cc1cccc(Oc2ncc(Br)cn2)c1-n1cc(C(F)(F)F)cn1 [Compound 59, 3-[(5-bromo-2-pyrimidinyl)oxy]-2-[4-(trifluoromethyl)-1H-pyrazol-1-yl]benzonitrile]",pest or weed control at 31 g/ha,[1]; 31 g ai/ha,100%
same,pest or weed control at 62 g/ha,[1]; 62 g ai/ha,100%
same,pest or weed control at 125 g/ha,[1]; 125 g ai/ha,100%
same,pest or weed control at 250 g/ha,[1]; 250 g ai/ha,100%
same,pest or weed control at 31 g/ha,[2]; 31 g ai/ha,90%
same,pest or weed control at 62 g/ha,[2]; 62 g ai/ha,85%
same,pest or weed control at 125 g/ha,[2]; 125 g ai/ha,80%
same,pest or weed control at 250 g/ha,[2]; 250 g ai/ha,95%
same,pest or weed control at 31 g/ha,[3]; 31 g ai/ha,25%
same,pest or weed control at 62 g/ha,[3]; 62 g ai/ha,55%
same,pest or weed control at 125 g/ha,[3]; 125 g ai/ha,70%
same,pest or weed control at 250 g/ha,[3]; 250 g ai/ha,85%
same,pest or weed control at 31 g/ha,[4]; 31 g ai/ha,100%
same,pest or weed control at 62 g/ha,[4]; 62 g ai/ha,75%
same,pest or weed control at 125 g/ha,[4]; 125 g ai/ha,100%
same,pest or weed control at 250 g/ha,[4]; 250 g ai/ha,100%
same,pest or weed control at 31 g/ha,[5]; [15],80%
same,pest or weed control at 62 g/ha,[5]; [16],85%
same,pest or weed control at 125 g/ha,[5]; [17],100%
same,pest or weed control at 250 g/ha,[5]; [18],100%
same,pest or weed control at 16 g/ha,[5]; [19],75%
same,pest or weed control at 31 g/ha,[6]; 31 g ai/ha,75%
same,pest or weed control at 62 g/ha,[6]; 62 g ai/ha,80%
same,pest or weed control at 125 g/ha,[6]; 125 g ai/ha,95%
same,pest or weed control at 250 g/ha,[6]; 250 g ai/ha,95%
same,pest or weed control at 31 g/ha,[7]; [15],70%
same,pest or weed control at 62 g/ha,[7]; [16],80%
same,pest or weed control at 125 g/ha,[7]; [17],85%
same,pest or weed control at 250 g/ha,[7]; [18],90%
same,pest or weed control at 16 g/ha,[7]; [19],65%
same,pest or weed control at 31 g/ha,[8]; 31 g ai/ha,95%
same,pest or weed control at 62 g/ha,[8]; 62 g ai/ha,100%
same,pest or weed control at 125 g/ha,[8]; 125 g ai/ha,95%
same,pest or weed control at 250 g/ha,[8]; 250 g ai/ha,100%
same,pest or weed control at 31 g/ha,[9]; 31 g ai/ha,90%
same,pest or weed control at 62 g/ha,[9]; 62 g ai/ha,80%
same,pest or weed control at 125 g/ha,[9]; 125 g ai/ha,100%
same,pest or weed control at 250 g/ha,[9]; 250 g ai/ha,100%
same,pest or weed control at 31 g/ha,[10]; 31 g ai/ha,70%
same,pest or weed control at 62 g/ha,[10]; 62 g ai/ha,75%
same,pest or weed control at 125 g/ha,[10]; 125 g ai/ha,100%
same,pest or weed control at 250 g/ha,[10]; 250 g ai/ha,100%
same,pest or weed control at 31 g/ha,[11]; 31 g ai/ha,100%
same,pest or weed control at 62 g/ha,[11]; 62 g ai/ha,95%
same,pest or weed control at 125 g/ha,[11]; 125 g ai/ha,100%
same,pest or weed control at 250 g/ha,[11]; 250 g ai/ha,100%
same,pest or weed control at 31 g/ha,[12]; 31 g ai/ha,60%
same,pest or weed control at 62 g/ha,[12]; 62 g ai/ha,100%
same,pest or weed control at 125 g/ha,[12]; 125 g ai/ha,100%
same,pest or weed control at 250 g/ha,[12]; 250 g ai/ha,100%
same,pest or weed control at 31 g/ha,[13]; 31 g ai/ha,70%
same,pest or weed control at 62 g/ha,[13]; 62 g ai/ha,75%
same,pest or weed control at 125 g/ha,[13]; 125 g ai/ha,95%
same,pest or weed control at 250 g/ha,[13]; 250 g ai/ha,95%
same,"corn plant response (injury) rating, 0-100 at 31 g/ha",[14]; [15],5%
same,"corn plant response (injury) rating, 0-100 at 62 g/ha",[14]; [16],10%
same,"corn plant response (injury) rating, 0-100 at 125 g/ha",[14]; [17],10%
same,"corn plant response (injury) rating, 0-100 at 250 g/ha",[14]; [18],15%
same,"corn plant response (injury) rating, 0-100 at 16 g/ha",[14]; [19],5%
